{"source": "PubChem BioAssay AID1259409", "about": "(Chemical Carcinogenesis Research Information System (CCRIS), 2018)", "origin": "cited, not measured here", "tested_on": "rodent chemically induced tumor inhibition, incidence and multiplicity", "test": "CCRIS tumor inhibitor studies", "data": [{"smiles": "CC(C)C[C@H]1C(=O)N2CCC[C@H]2[C@]2(O)O[C@](NC(=O)[C@@H]3C=C4c5cccc6[nH]c(Br)c(c56)C[C@H]4N(C)C3)(C(C)C)C(=O)N12", "values": [{"measurement": "tumour outcome (control, treated, inhibition, significance)", "setting": "Carcinogen: N-METHYL-N-NITROSOUREA, 684-93-5, Dose [Inhibitor]: 0.4 MG/100 G BW 1/D FOR 129 D BEGINNING AT 60 D OF AGE (STUDY DURATION: 223 D), Route [Inhibitor]: SUBCUTANEOUS, Species: RAT, Strain/Sex: SPRAGUE-DAWLEY/FEMALE, Target Tissue: Type of Lesion: MAMMARY GLAND: NOT SPECIFIED, Dose [Carcinogen]: 2.5 MG/100 G BW ONCE AT 50 D AND ONCE AT 57 D OF AGE, Promoter: NONE USED", "value": "73%, 37%, 49%, p<0.005"}, {"measurement": "tumour outcome (control, treated, inhibition, significance)", "setting": "Carcinogen: N-METHYL-N-NITROSOUREA, 684-93-5, Dose [Inhibitor]: 0.4 MG/100 G BW 1/D FOR 175 D BEGINNING AT 60 D OF AGE (STUDY DURATION: 185 D), Route [Inhibitor]: SUBCUTANEOUS, Species: RAT, Strain/Sex: SPRAGUE-DAWLEY/FEMALE, Target Tissue: Type of Lesion: MAMMARY GLAND: NOT SPECIFIED, Dose [Carcinogen]: 1.25 MG/100 G BW ONCE AT 50 D AND ONCE AT 57 D OF AGE, Promoter: NONE USED", "value": "27%, 13%, 52%, not significant"}, {"measurement": "tumour outcome (control, treated, inhibition, significance)", "setting": "Carcinogen: N-METHYL-N-NITROSOUREA, 684-93-5, Dose [Inhibitor]: 0.4 MG/100 G BW 1/D PLUS 328 MG RETINYL ACETATE/KG DIET FOR 175 D BEGINNING AT 60 D OF AGE (STUDY DURATION: 185 D), Route [Inhibitor]: SUBCUTANEOUS, Species: RAT, Strain/Sex: SPRAGUE-DAWLEY/FEMALE, Target Tissue: Type of Lesion: MAMMARY GLAND: NOT SPECIFIED, Dose [Carcinogen]: 1.25 MG/100 G BW ONCE AT 50 D AND ONCE AT 57 D OF AGE, Promoter: NONE USED", "value": "27%, 0%, 100%, p<0.01"}, {"measurement": "tumour outcome (control, treated, inhibition, significance)", "setting": "Carcinogen: N-METHYL-N-NITROSOUREA, 684-93-5, Dose [Inhibitor]: 0.4 MG/100 G BW 1/D PLUS 328 MG RETINYL ACETATE/KG OF DIET, FOR 129 D BEGINNING AT 60 D OF AGE (STUDY DURATION: 223 D), Route [Inhibitor]: SUBCUTANEOUS, Species: RAT, Strain/Sex: SPRAGUE-DAWLEY/FEMALE, Target Tissue: Type of Lesion: MAMMARY GLAND: NOT SPECIFIED, Dose [Carcinogen]: 2.5 MG/100 G BW ONCE AT 50 D AND ONCE AT 57 D OF AGE, Promoter: NONE USED", "value": "73%, 7%, 90%, p<0.005"}, {"measurement": "outcome", "setting": "Carcinogen: N-METHYL-N-NITROSOUREA, 684-93-5, Dose [Inhibitor]: 400 UG/100 G BW TOGETHER WITH 25 UG/100 G BW TAMOXIFEN 1/D FOR 6 MO BEGINNING 3 D POST CARCINOGEN DOSE, DOSAGE OF BOTH R, Route [Inhibitor]: SUBCUTANEOUS, Species: RAT, Strain/Sex: SPRAGUE-DAWLEY/FEMALE, Target Tissue: Type of Lesion: MAMMARY GLAND: CARCINOMA, Dose [Carcinogen]: 2.5 MG/100 G BW ONCE AT 50 D AND ONCE AT 57 D OF AGE, Promoter: NONE USED", "value": "88%, 3%, 97%, p<0.001 (at 4 mo post carcinogen dose); 88%, 28%, 68%, not calcula"}, {"measurement": "outcome", "setting": "Carcinogen: N-METHYL-N-NITROSOUREA, 684-93-5, Dose [Inhibitor]: 400 UG/100 G BW TOGETHER WITH 25 UG/100 G BW TAMOXIFEN 1/D FOR 6 MO PLUS 328 MG RETINYL ACETATE/KG DIET FOR 6 MO, DOSAGE, Route [Inhibitor]: SUBCUTANEOUS, Species: RAT, Strain/Sex: SPRAGUE-DAWLEY/FEMALE, Target Tissue: Type of Lesion: MAMMARY GLAND: CARCINOMA, Dose [Carcinogen]: 2.5 MG/100 G BW ONCE AT 50 D AND ONCE AT 57 D OF AGE, Promoter: NONE USED", "value": "88%, 0%, 100%, p<0.001 (at 4 mo post carcinogen dose); 88%, 7%, 92%, not calcula"}, {"measurement": "outcome", "setting": "Carcinogen: N-ethyl-N'-nitro-N-nitrosoguanidine (ENNG), 4245-77-6, Dose [Inhibitor]: 1 mg/kg bw 5 x a wk up to 14.5 mo of age (half a mo before termination of experiment), Route [Inhibitor]: Subcutaneous, Species: Rat, Strain/Sex: Crj:Donryu/female, Target Tissue: Type of Lesion: Uterus: Adenocarcinoma, Dose [Carcinogen]: 20 mg/kg, Promoter: None", "value": "9/25 (36%), 3/23 (13%), p<0.05"}, {"measurement": "tumour outcome (control, treated, inhibition, significance)", "setting": "Carcinogen: NONE USED, Dose [Inhibitor]: 0.1 MG IN SALINE 1/D FOR 12 MO BEGINNING AT 2 MO OF AGE (STUDY DURATION: 22 MO), Route [Inhibitor]: SUBCUTANEOUS, Species: MOUSE, Strain/Sex: C3H/FEMALE, Target Tissue: Type of Lesion: MAMMARY GLAND: CARCINOMA, Promoter: NONE USED", "value": "24/90 (27%), 1/90 (1%), 96%, p<0.001"}, {"measurement": "tumour outcome (control, treated, inhibition, significance)", "setting": "Carcinogen: NONE USED, Dose [Inhibitor]: 0.1 MG IN SALINE 1/D FOR 30 D ON ALTERNATE MO BEGINNING AT 7 MO OF AGE FOR 12 MO (STUDY DURATION: 12 MO), Route [Inhibitor]: SUBCUTANEOUS, Species: MOUSE, Strain/Sex: C3H/FEMALE, Target Tissue: Type of Lesion: MAMMARY GLAND: CARCINOMA, Promoter: NONE USED", "value": "36/70 (51%), 9/70 (13%), 74%, p<0.01"}, {"measurement": "tumour outcome (control, treated, inhibition, significance)", "setting": "Carcinogen: NONE USED, Dose [Inhibitor]: 0.1 MG/D BEGINNING AT 1 MO OF AGE FOR 16 MO (STUDY DURATION: 16 MO), Route [Inhibitor]: SUBCUTANEOUS, Species: MOUSE, Strain/Sex: C3H/FEMALE, Target Tissue: Type of Lesion: MAMMARY GLAND: TUMOR, Promoter: NONE USED", "value": "24/29 (83%), 13/28 (46%), 44%, p<0.01"}, {"measurement": "tumour outcome (control, treated, inhibition, significance)", "setting": "Carcinogen: NONE USED, Dose [Inhibitor]: 0.5 MG IN 0.05 ML OLIVE OIL 1/D FOR 7 WK BEGINNING AT 4 WK OF AGE (STUDY DURATION: 26 MO), Route [Inhibitor]: SUBCUTANEOUS, Species: RAT, Strain/Sex: SPRAGUE-DAWLEY/FEMALE, Target Tissue: Type of Lesion: MAMMARY GLAND: TUMOR, Promoter: NONE USED", "value": "70%, 32%, 54%, p<0.05"}, {"measurement": "tumour outcome (control, treated, inhibition, significance)", "setting": "Carcinogen: NONE USED, Dose [Inhibitor]: 0.5 MG IN 0.05 ML OLIVE OIL 1/D FOR 7 WK BEGINNING AT 11 WK OF AGE (STUDY DURATION: 26 MO), Route [Inhibitor]: SUBCUTANEOUS, Species: RAT, Strain/Sex: SPRAGUE-DAWLEY/FEMALE, Target Tissue: Type of Lesion: MAMMARY GLAND: TUMORS, Promoter: NONE USED", "value": "70%, 55%, 21%, p<0.05"}, {"measurement": "tumour outcome (control, treated, inhibition, significance)", "setting": "Carcinogen: NONE USED, Dose [Inhibitor]: 8.5 MG/KG 1/D FOR 4 D TO PREGNANT MICE ON D 12 TO D 15 OF PREGNANCY, FEMALE OFFSPRING OBSERVED FOR 10 MO (STUDY DURATION, Route [Inhibitor]: SUBCUTANEOUS, Species: MOUSE, Strain/Sex: SHN/FEMALE, Target Tissue: Type of Lesion: MAMMARY GLAND: NOT SPECIFIED, Promoter: NONE USED", "value": "33/38 (87%), 10/13 (77%), 11%, not calculated"}, {"measurement": "tumour outcome (control, treated, inhibition, significance)", "setting": "Carcinogen: NONE USED, Dose [Inhibitor]: 40 MG/KG 1/D FOR FIRST 5 D OF POSTNATAL LIFE, OBSERVED FOR 10 MO (STUDY DURATION: 10 MO), Route [Inhibitor]: SUBCUTANEOUS, Species: MOUSE, Strain/Sex: SHN/FEMALE, Target Tissue: Type of Lesion: MAMMARY GLAND: NOT SPECIFIED, Promoter: NONE USED", "value": "33/38 (87%), 17/17 (100%), -15%, not significant"}, {"measurement": "tumour outcome (control, treated, inhibition, significance)", "setting": "Carcinogen: NONE USED, Dose [Inhibitor]: 100 UG OF 1 MG/ML DISSOLVED IN A MINIMAL AMOUNT OF ETHANOL AND SUSPENDED IN 0.9% NACL 1/D FROM D 7 TO 21 OF PREGNANCY (S, Route [Inhibitor]: SUBCUTANEOUS, Species: MOUSE, Strain/Sex: GR/FEMALE, Target Tissue: Type of Lesion: MAMMARY GLAND: TUMOR, Promoter: NONE USED", "value": "39/44 (89%), 24/43 (56%), 37%, p<0.05"}]}]}
